Test results from paper PMC8746645, “Isolation of Anti-Diabetic Active Compounds from Benincasae Exocarpium and Development of Simultaneous Analysis by HPLC-PDA” (Molecules, 2021).
Where two headings read alike, the source gives them in different places.

Experiments:
[1] = tested on: advanced glycation end-products (AGEs) formation in bovine serum albumin (BSA)-glucose system; assay type: biochemical
Protocol: The AGE formation inhibitory assay of BSA-glucose was conducted using a spectrophotometric method developed in a previous study. All test samples were dissolved in 10% DMSO at five different concentrations (1000–10,000 μg/mL for the extract and fractions and 100–10,000 μM for the compounds). The assay mixtures contained the following constituents: 135 µL of 50 mM phosphate buffer (pH 7.4) containing 0.02% sodium azide and BSA (10 mg/mL), 135 µL of 0.4 M D-fructose and D-glucose, and 30 µL of sample. The mixture was incubated at 60 °C for 2 days. After incubation, the fluorescence was measured at an excitation wavelength of 350 nm and emission wavelength of 450 nm in a 96-black well plate. AMG was used as a positive control. The inhibitory activity on AGE formation of BSA-glucose was calculated using the following formula: {(Ac − As)/Ac} × 100, where Ac is the fluorescence of the control and As is the fluorescence of the sample. Controls contained the same reaction mixture, except that phosphate buffer was added instead of the sample. The half-maximal inhibitory concentration (IC50) values of triplicate measurements of the samples and AMG were calculated and expressed as the mean ± SD.

[2] = tested on: advanced glycation end-products (AGEs) formation in BSA-methylglyoxal (MGO) system; experiment: AGE formation inhibitory assay, BSA-MGO system; assay type: biochemical, bovine
Protocol: The AGE formation inhibitory assay of BSA-MGO was conducted using spectrophotometry according to a previously described method with modification. All samples were dissolved in 10% DMSO. The assay mixtures contained 50 µL of 50 mM phosphate buffer (pH 7.4) containing 0.02% sodium azide and BSA (10 mg/mL), 50 µL of 7 mM MGO, and 50 µL of sample. After incubation at 60 °C for 2 days, fluorescence was measured on excitation and emission wavelengths of 340 and 420 nm, respectively, in a 96-black well plate. AMG was used as a positive control. The inhibitory activity on AGE formation by BSA-MGO was calculated using the same equation applied in the BSA-glucose assay.

[3] = design: method as in PMID 29885110; details: cited from earlier work
[4] = target: α-glucosidase from Saccharomyces cerevisiae (Saccharomyces cerevisiae, UniProt P53341); experiment: α-glucosidase inhibitory activity assay (p-NPG substrate); assay type: biochemical; details: for IC50: compounds, pH 6.8, 37 °C, 405 nm, mean ± SD (n = 3)
Protocol: Among the anti-diabetes activity assays, the Infinite® F200 PRO spectrophotometer (TECAN, Männedorf, Zürich, Switzerland) was used for the AGE formation inhibitory activity assay in the BSA-glucose and BSA-MGO systems. In addition, the α-glucosidase inhibitory activity assay was performed using Biotek EPOCH2 (Biotek, Winooski, VT, USA).
α-Glucosidase inhibitory activity was measured spectrophotometrically according to the previously described method. All samples were dissolved in 10% DMSO. This assay consisted of a 50 μL sample solution, 50 μL of 50 mM potassium phosphate buffer (pH 6.8), and 50 μL of 0.5 U/mL α-glucosidase was preincubated for 10 min at 37 °C. After incubation, 50 μL of p-NPG was added to the mixed assay mixtures. […] The inhibitory activity was calculated using the equation applied in the BSA-glucose assay, but Ac and As are the absorbance values of the control and sample, respectively.

[5] = compounds, 60 °C, 2 days, fluorescence ex 350/em 450 nm, mean ± SD (n = 3), read-out: IC50 BSA-Glucose
[6] = compounds, 60 °C, 2 days, fluorescence ex 340/em 420 nm, mean ± SD (n = 3)

Sequence of α-glucosidase from Saccharomyces cerevisiae (P53341 whole entry): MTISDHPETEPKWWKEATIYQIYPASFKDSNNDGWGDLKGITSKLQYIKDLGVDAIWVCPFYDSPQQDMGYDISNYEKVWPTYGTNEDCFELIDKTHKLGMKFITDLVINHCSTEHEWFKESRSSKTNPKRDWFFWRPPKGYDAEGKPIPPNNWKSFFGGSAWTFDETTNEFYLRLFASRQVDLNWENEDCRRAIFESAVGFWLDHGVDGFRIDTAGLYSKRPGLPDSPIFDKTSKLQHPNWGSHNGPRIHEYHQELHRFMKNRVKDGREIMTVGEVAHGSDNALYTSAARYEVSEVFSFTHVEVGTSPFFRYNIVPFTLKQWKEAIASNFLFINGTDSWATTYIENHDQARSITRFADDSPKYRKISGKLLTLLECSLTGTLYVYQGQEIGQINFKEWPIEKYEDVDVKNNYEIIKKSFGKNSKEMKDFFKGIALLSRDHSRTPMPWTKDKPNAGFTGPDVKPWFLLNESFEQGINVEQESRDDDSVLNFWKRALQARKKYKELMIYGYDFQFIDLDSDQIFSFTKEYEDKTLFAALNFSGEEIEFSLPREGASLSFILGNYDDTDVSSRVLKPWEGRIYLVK

SMILES | inhibition of AGE formation in BSA-MGO system (in words) [2] | α-glucosidase inhibitory activity (in words) [4] | IC50 [1, 5] [µM] | IC50 [2, 6] [µM] | other results
Cl.N=C(N)NN [AMG, aminoguanidine hydrochloride, reference compound] |  |  |  |  | IC50 BSA-Glucose ([1]; extract and fractions, 60 °C, 2 days, fluorescence ex 350/em 450 nm, mean ± SD (n = 3)): 217.93 ± 1.54 mg/L; IC50 BSA-MGO ([2]; extract and fractions, 60 °C, 2 days, fluorescence ex 340/em 420 nm, mean ± SD (n = 3)): 167.32 ± 8.40 mg/L
N=C(N)NN [Aminoguanidine, aminoguanidine] |  |  |  |  | toxicity during clinical evaluation [3]: toxic
O=C(O)c1ccc(O)cc1 [Compound 1, p-hydroxybenzoic acid] | no or slight inhibitory activity | no, or slight, inhibitory activity |  |  | inhibition of AGE formation in BSA-glucose system (in words) [1]: no activity
O=C(O)c1ccc(O)c(O)c1 [Compound 2, protocatechuic acid] |  |  | 79.8 ± 1.91 | 53.2 ± 23.2 | 
COc1ccc(C=O)cc1O [Compound 3, isovanillin] | no or slight inhibitory activity | no, or slight, inhibitory activity |  | > 500 | inhibition of AGE formation in BSA-glucose system (in words) [1]: no activity
O=Cc1ccc(CO)o1 [Compound 4, 5-hydroxymethylfurfural] | no or slight inhibitory activity | no, or slight, inhibitory activity |  | 381 ± 14.7 | inhibition of AGE formation in BSA-glucose system (in words) [1]: no activity
O=c1cc(-c2ccc(O)cc2)oc2cc(O)c([C@@H]3O[C@H](CO)[C@@H](O)[C@H](O)[C@H]3O)c(O)c12 [Compound 5, isovitexin] |  |  | 20.2 ± 0.1 | 7.49 ± 0.24 | 
O=c1cc(-c2ccc(O)cc2)oc2c([C@@H]3O[C@H](CO)[C@@H](O)[C@H](O)[C@H]3O)c(O)cc(O)c12 [Compound 6, vitexin] |  |  | 19.5 ± 1.47 | 14.9 ± 3.66 | 
O=c1cc(-c2ccc(O)c(O)c2)oc2c([C@@H]3O[C@H](CO)[C@@H](O)[C@H](O)[C@H]3O)c(O)cc(O)c12 [Compound 7, orientin] |  |  | 9.61 ± 0.27 | 13.3 ± 0.65 | 
O=C(O)c1cc(O)c(O)c(O)c1 [Compound 8, gallic acid] | no or slight inhibitory activity |  | 192 ± 2.15 | > 500 | 
O=C(O)/C=C/c1ccc(O)c(O)c1 [Compound 9, caffeic acid] |  | no, or slight, inhibitory activity | 54.51 ± 0.3 | 43 ± 9.41 | 
C[C@@H]1O[C@@H](O[C@@H]2[C@@H](O)[C@H](O)[C@@H](CO)O[C@H]2c2c(O)cc(O)c3c(=O)cc(-c4ccc(O)cc4)oc23)[C@H](O)[C@H](O)[C@H]1O [Compound 10, vitexin-2″-O-rhamnoside] |  |  |  |  | IC50 [1]: 29.6 ± 1.02 µM; IC50 [2]: 12.5 ± 0.81 µM; IC50 [4]: 12.8 ± 1.18 µM
O=c1cc(-c2ccc(O)cc2)oc2c([C@@H]3O[C@H](CO)[C@@H](O[C@@H]4O[C@H](CO)[C@@H](O)[C@H](O)[C@H]4O)[C@H](O)[C@H]3O)c(O)cc(O)c12 [Compound 11, vitexin-4″-O-glucoside] |  |  | 14.5 ± 0.39 | 11.6 ± 1.1 | IC50 [4]: 65.4 ± 4.22 µM
